In brackets after ≈: the same amount, converted by molar mass. Activity calls are given as the source filed them. The rule behind the calls is not given here. *1 amine or outer side, *2 acyl side, *3 side chain or, on linkers, in order; H or OH if unused. Where a SMILES comes first, the peptide text is derived from it. [ ]: non-standard residue; d: D form. X1 = CC[C@@H](C)[C@@H](O[*:1])C(=O)[*:2]; NMeVal(β-OH) = CN[C@H](C(=O)O)C(C)(C)O; NMeF = CN[C@@H](Cc1ccccc1)C(=O)O; aIle = CC[C@@H](C)[C@H](N)C(=O)O; NMeV = CN[C@H](C(=O)O)C(C)C
Experiments:
Cryptococcus neoformans [1] = assay: Fungicidal activity against Cryptococcus neoformans PFCC 93-589 by broth microdilution assay; assay type: functional
Cryptococcus neoformans [2] = assay: Synergistic antifungal activity against Cryptococcus neoformans PFCC 93-589 assessed as fractional inhibitory concentration index in presence of fluconazole by checkerboard microtiter assay; assay type: functional
Cryptococcus neoformans [3] = assay: Antifungal activity against Cryptococcus neoformans PFCC 93-589 by broth microdilution assay; assay type: functional
Cryptococcus neoformans [4] = assay: Induction of morphological changes in Cryptococcus neoformans PFCC 93-589 assessed as disorganization of cytoplasmic content at 2 ug/ml after 48 hrs by TEM analysis; assay type: functional, organism-based; conditions: dose 2.0 µg/ml
Cryptococcus neoformans [5] = assay: Inhibition of ergosterol biosynthesis in Cryptococcus neoformans PFCC 93-589 cell membrane assessed as ergosterol content at 0.5 times MIC incubated for 48 hrs by UV-visible spectrophotometric analysis (reference value: 0.134); assay type: functional, cell membranes
Cryptococcus neoformans [6] = assay: Inhibition of ergosterol biosynthesis in Cryptococcus neoformans PFCC 93-589 cell membrane at 0.5 times MIC incubated for 48 hrs by UV-visible spectrophotometric analysis; assay type: functional, cell membranes
Cryptococcus neoformans [7] = assay: Inhibition of ergosterol biosynthesis in Cryptococcus neoformans PFCC 93-589 cell membrane assessed as ergosterol content at 1 times MIC incubated for 48 hrs by UV-visible spectrophotometric analysis (reference value: 0.134); assay type: functional, cell membranes
Cryptococcus neoformans [8] = assay: Inhibition of ergosterol biosynthesis in Cryptococcus neoformans PFCC 93-589 cell membrane at 1 times MIC incubated for 48 hrs by UV-visible spectrophotometric analysis; assay type: functional, cell membranes
Cryptococcus neoformans [9] = assay: Antifungal activity against Cryptococcus neoformans PFCC 93-589 after 2 days in absence of sorbitol by microdilution assay; assay type: functional; conditions: PFCC 93-589, 48 h, time 2 day
Cryptococcus neoformans [10] = assay: Antifungal activity against Cryptococcus neoformans PFCC 93-589 after 2 days in presence of sorbitol by microdilution assay; assay type: functional; conditions: PFCC 93-589, 48 h, time 2 day
Cryptococcus neoformans [11] = assay: Antifungal activity against Cryptococcus neoformans PFCC 93-589 after 7 days in absence of sorbitol by microdilution assay; assay type: functional; conditions: PFCC 93-589, 168 h, time 7 day
Cryptococcus neoformans [12] = assay: Antifungal activity against Cryptococcus neoformans PFCC 93-589 after 7 days in presence of sorbitol by microdilution assay; assay type: functional; conditions: PFCC 93-589, 168 h, time 7 day
Cryptococcus neoformans [13] = assay: Antifungal activity against Cryptococcus neoformans PFCC 93-589 assessed as increase in extracellular potassium leakage at 2 times MIC incubated up to 12 hrs measured per mg dry weight of cell by spectrophotometric method; assay type: functional; conditions: time hrs <=12
Cryptococcus neoformans [14] = assay: Antifungal activity against Cryptococcus neoformans PFCC 93-589 assessed as inhibition of melanin production at 0.5 times MIC incubated for 2 to 10 days; assay type: functional, organism-based; conditions: time 2-10 day
Cryptococcus neoformans [15] = assay: Antifungal activity against Cryptococcus neoformans PFCC 93-589 assessed as TOS production at 0.5 times MIC incubated for 10 mins measured per mg of protein by colorimetric method (reference value: 1.04 umol); assay type: functional
Cryptococcus neoformans [16] = assay: Antifungal activity against Cryptococcus neoformans PFCC 93-589 assessed as TOS production at 1 times MIC incubated for 10 mins measured per mg of protein by colorimetric method (reference value: 1.19 umol); assay type: functional
Cryptococcus neoformans [17] = assay: Antifungal activity against Cryptococcus neoformans PFCC 93-589 assessed as TOS production at 2 times MIC incubated for 10 mins measured per mg of protein by colorimetric method (reference value: 1.63 umol); assay type: functional
[18] = Hemolytic activity in human RBC at 8 ug/ml incubated for 30 mins; assay type: ADME, cell-based, Erythrocyte; conditions: red blood cells (erythrocytes), at 8 µg/mL, read-out: Activity
[19] = Hemolytic activity in human RBC at 4 ug/ml incubated for 30 mins; assay type: cell-based, Erythrocyte; conditions: red blood cells (erythrocytes), at 4 µg/mL, read-out: Activity
[20] = Hemolytic activity in human RBC at 2 ug/ml incubated for 30 mins; assay type: ADME, cell-based, Erythrocyte; conditions: red blood cells (erythrocytes), at 2 µg/mL, read-out: Activity
[21] = Hemolytic activity in human RBC at 1 ug/ml incubated for 30 mins; assay type: ADME, cell-based, Erythrocyte; conditions: red blood cells (erythrocytes), at 1 µg/mL, read-out: Activity
[22] = Hemolytic activity in human RBC at 0.5 ug/ml incubated for 30 mins; assay type: ADME, cell-based, Erythrocyte; conditions: red blood cells (erythrocytes), at 0.5 µg/mL, read-out: Activity
[23] = Cytotoxicity against human HEK293 cells assessed as cell survival at 0.25 times MIC incubated for 24 hrs by MTT assay; assay type: cell-based; conditions: read-out: Activity
[24] = Cytotoxicity against human HEK293 cells assessed as cell survival at 0.5 times MIC incubated for 24 hrs by MTT assay; assay type: cell-based; conditions: read-out: Activity
[25] = Cytotoxicity against human HEK293 cells assessed as cell survival at 1 times MIC incubated for 24 hrs by MTT assay; assay type: cell-based; conditions: read-out: Activity
[26] = Cytotoxicity against human HEK293 cells assessed as inhibition of cell viability at 2 times MIC incubated for 24 hrs by MTT assay; assay type: cell-based; conditions: at 8 µg/mL, read-out: INH
Cryptococcus neoformans [27] = assay: Induction of morphological changes in Cryptococcus neoformans PFCC 93-589 assessed as excessive vacuolization at 2 ug/ml after 48 hrs by TEM analysis; assay type: functional, organism-based; conditions: dose 2.0 µg/ml
Cryptococcus neoformans [28] = assay: Induction of morphological changes in Cryptococcus neoformans PFCC 93-589 assessed as deposition of lipid globules at 2 ug/ml after 48 hrs by TEM analysis; assay type: functional, organism-based; conditions: dose 2.0 µg/ml
Cryptococcus neoformans [29] = assay: Upregulation of Lac1 gene expression in Cryptococcus neoformans PFCC 93-589 assessed as fold increase in […] at 2 ug/ml by SYBR green based RT-PCR analysis; assay type: functional; conditions: dose 2.0 µg/ml
Cryptococcus neoformans [30] = assay: Downregulation of Cxt1p gene expression in Cryptococcus neoformans PFCC 93-589 assessed as fold decrease in […] at 2 ug/ml by SYBR green based RT-PCR analysis; assay type: functional; conditions: dose 2.0 µg/ml
Aspergillus niger = assay: Antifungal activity against Aspergillus niger incubated for 48 hrs by broth microdilution method; assay type: functional
Aspergillus fumigatus = assay: Antifungal activity against Aspergillus fumigatus incubated for 48 hrs by broth microdilution method; assay type: functional
Aspergillus flavus = assay: Antifungal activity against Aspergillus flavus incubated for 48 hrs by broth microdilution method; assay type: functional
Candida albicans = assay: Antifungal activity against Candida albicans incubated for 24 hrs by broth microdilution method; assay type: functional
Nakaseomyces glabratus = assay: Antifungal activity against Candida glabrata incubated for 24 hrs by broth microdilution method; assay type: functional
Candida tropicalis = assay: Antifungal activity against Candida tropicalis incubated for 24 hrs by broth microdilution method; assay type: functional
Candida parapsilosis = assay: Antifungal activity against Candida parapsilosis incubated for 24 hrs by broth microdilution method; assay type: functional; conditions: Lodderomyces parapsilosis
Pichia kudriavzevii = assay: Antifungal activity against Candida krusei incubated for 24 hrs by broth microdilution method; assay type: functional
Cryptococcus neoformans [31] = assay: Antifungal activity against Cryptococcus neoformans PFCC 93-589 assessed as half minimum inhibitory concentration by broth microdilution assay; assay type: functional
Cryptococcus neoformans [32] = assay: Antifungal activity against Cryptococcus neoformans PFCC 93-589 in presence of fluconazole by checkerboard microtiter assay; assay type: functional
Cryptococcus neoformans [33] = assay: Downregulation of Cxt1p gene expression in Cryptococcus neoformans PFCC 93-589 at 2 ug/ml by SYBR green based RT-PCR analysis relative to control; assay type: functional; conditions: dose 2.0 µg/ml
[34] = Hemolytic activity in human RBC at 16 ug/ml incubated for 30 mins; assay type: ADME, cell-based, Erythrocyte; conditions: red blood cells (erythrocytes), at 16 µg/mL, read-out: Activity
Cryptococcus neoformans [35] = assay: Induction of morphological changes in Cryptococcus neoformans PFCC 93-589 assessed as disorganization of cytoplasmic content at 4 ug/ml after 48 hrs by TEM analysis; assay type: functional, organism-based; conditions: dose 4.0 µg/ml
Cryptococcus neoformans [36] = assay: Induction of morphological changes in Cryptococcus neoformans PFCC 93-589 assessed as disintegration and loosening of cell membrane at 4 ug/ml after 48 hrs by TEM analysis; assay type: functional, organism-based; conditions: dose 4.0 µg/ml
Cryptococcus neoformans [37] = assay: Upregulation of Lac1 gene expression in Cryptococcus neoformans PFCC 93-589 at 4 ug/ml by SYBR green based RT-PCR analysis; assay type: functional; conditions: dose 4.0 µg/ml
Cryptococcus neoformans [38] = assay: Downregulation of Cxt1p gene expression in Cryptococcus neoformans PFCC 93-589 at 4 ug/ml by SYBR green based RT-PCR analysis; assay type: functional; conditions: dose 4.0 µg/ml
Cryptococcus neoformans [39] = assay: Antifungal activity against Cryptococcus neoformans PFCC 93-589 in presence of Aureobasidin-A by checkerboard microtiter assay; assay type: functional
[40] = Cytotoxicity against human HEK293 cells assessed as cell viability at 2 times MIC incubated for 24 hrs by MTT assay; assay type: cell-based; conditions: read-out: Activity

SMILES: CC[C@@H](C)[C@@H]1NC(=O)[C@@H]2CCCN2C(=O)[C@H](Cc2ccccc2)N(C)C(=O)[C@H](Cc2ccccc2)NC(=O)[C@H](C(C)C)N(C)C(=O)[C@@H]([C@H](C)CC)OC(=O)[C@H](C(C)(C)O)N(C)C(=O)[C@H](CC(C)C)NC(=O)[C@H](C(C)C)N(C)C1=O [AUREOBASIDIN A] (cyclo(F[NMeF]P[aIle][NMeV]L[NMeVal(β-OH)][X1][NMeV]))
- MFC (Cryptococcus neoformans [1]): 8 µg/mL (≈ 7.26 µM)
- fractional inhibitory concentration index (FICI) (Cryptococcus neoformans [2]): 0.26
- MIC (Cryptococcus neoformans [3]): 4 µg/mL (≈ 3.63 µM)
- Activity (Cryptococcus neoformans [4]): Active
- Activity (Cryptococcus neoformans [5]): 0.095
- inhibition (Cryptococcus neoformans [6]): 29.1%
- Activity (Cryptococcus neoformans [7]): 0.078
- inhibition (Cryptococcus neoformans [8]): 41.8%
- MIC (Cryptococcus neoformans [9]): 8 µg/mL (≈ 7.26 µM)
- MIC (Cryptococcus neoformans [10]): 8 µg/mL
- MIC (Cryptococcus neoformans [11]): 16 µg/mL (≈ 14.5 µM)
- MIC (Cryptococcus neoformans [12]): 16 µg/mL
- Activity (Cryptococcus neoformans [13]): 2.51 mM
- Activity (Cryptococcus neoformans [14]): Active
- Activity (Cryptococcus neoformans [15]): 1.46 nmol
- Activity (Cryptococcus neoformans [16]): 2.12 nmol
- Activity (Cryptococcus neoformans [17]): 3.09 nmol
- hemolysis at 0.5 h, 8 ug/ml [18]: 2.4%
- hemolysis at 0.5 h, 4 ug/ml [19]: 1.35%
- hemolysis at 0.5 h, 2 ug/ml [20]: 0.65%
- hemolysis at 0.5 h, 1 ug/ml [21]: 0.31%
- hemolysis at 0.5 h, 0.5 ug/ml [22]: 0%
- viability at 24 h, 0.25 times MIC [23]: 98%
- viability at 24 h, 0.5 times MIC [24]: 89%
- viability at 24 h, 1 times MIC [25]: 75%
- cytotoxicity at 24 h, 2 times MIC [26]: 40%
- Activity (Cryptococcus neoformans [27]): Active
- Activity (Cryptococcus neoformans [28]): Active
- fold change (FC) (Cryptococcus neoformans [29]): 11.7
- fold change (FC) (Cryptococcus neoformans [30]): 0.2
- MIC (Aspergillus niger): 800 µg/mL (≈ 726 µM)
- MIC (Aspergillus fumigatus): > 50000 µg/mL
- MIC (Aspergillus flavus): > 50000 µg/mL
- MIC (Candida albicans): < 2000 µg/mL
- MIC (Nakaseomyces glabratus): < 2000 µg/mL
- MIC (Candida tropicalis): < 2000 µg/mL
- MIC (Candida parapsilosis): < 2000 µg/mL
- MIC (Pichia kudriavzevii): < 2000 µg/mL
- MIC (Cryptococcus neoformans [31]): 2 µg/mL (≈ 1.82 µM)
- MIC (Cryptococcus neoformans [32]): 1 µg/mL
- inhibition (Cryptococcus neoformans [33]): 80%

SMILES: OC(Cn1cncn1)(Cn1cncn1)c1ccc(F)cc1F [FLUCONAZOLE]
- MFC (Cryptococcus neoformans [1]): 16 µg/mL (≈ 52.2 µM)
- MIC (Cryptococcus neoformans [3]): 8 µg/mL (≈ 26.1 µM)
- Activity (Cryptococcus neoformans [5]): 0.055
- inhibition (Cryptococcus neoformans [6]): 59%
- Activity (Cryptococcus neoformans [7]): 0.047
- inhibition (Cryptococcus neoformans [8]): 64.9%
- MIC (Cryptococcus neoformans [9]): 16 µg/mL (≈ 52.2 µM)
- MIC (Cryptococcus neoformans [10]): 16 µg/mL
- MIC (Cryptococcus neoformans [11]): 64 µg/mL (≈ 209 µM)
- MIC (Cryptococcus neoformans [12]): 64 µg/mL
- Activity (Cryptococcus neoformans [14]): Active
- hemolysis at 0.5 h, 8 ug/ml [18]: 42%
- hemolysis at 0.5 h, 4 ug/ml [19]: 34%
- hemolysis at 0.5 h, 2 ug/ml [20]: 29%
- hemolysis at 0.5 h, 1 ug/ml [21]: 18%
- hemolysis at 0.5 h, 16 ug/ml [34]: 53%
- viability at 24 h, 0.25 times MIC [23]: 99.9%
- viability at 24 h, 0.5 times MIC [24]: 97.9%
- viability at 24 h, 1 times MIC [25]: 95.5%
- Activity (Cryptococcus neoformans [35]): Active
- Activity (Cryptococcus neoformans [36]): Active
- Activity (Cryptococcus neoformans [37]): inactive
- inhibition (Cryptococcus neoformans [38]): inactive
- MIC (Cryptococcus neoformans [31]): 4 µg/mL (≈ 13.1 µM)
- MIC (Cryptococcus neoformans [39]): 0.5 µg/mL
- viability at 24 h, 2 times MIC [40]: 88.6%

From ChEMBL document CHEMBL4814046, “Inhibitory effects and mechanism of antifungal action of the natural cyclic depsipeptide, aureobasidin A against Cryptococcus neoformans” (Bioorg Med Chem Lett, 2021)
